Reference: patent US4368203A, “Antibiotics and derivatives thereof having β-lactamase inhibitory activity and production thereof” (priority 1977, dated 1983)
In brackets after ≈: the same amount, converted by molar mass. Entries after “also recorded” stand apart in the source; their conditions may differ. Like-named read-outs stand apart in the source and are kept apart here.

How the values were obtained:
[1] = Stability (general statements); type: physicochemical; settings: general statement
[2] = tested on: Klebsiella pneumoniae K-2; experiment: MIC, broth dilution method; settings: Klebsiella pneumoniae, K2, 20 h, read-out: Minimum inhibitory concentration
[3] = tested on: Streptococcus pyogenes NY-5; experiment: MIC, broth dilution method; settings: Streptococcus pyogenes, NY5, 20 h, read-out: Minimum inhibitory concentration
Proteus vulgaris P-5 [4] = experiment: MIC, broth dilution method; settings: Proteus vulgaris, P5, 20 h, read-out: Minimum inhibitory concentration
[5] = tested on: Staphylococcus aureus Smith; experiment: In vivo activity in intraperitoneally infected mice; set-up: species or system DDY male mice; settings: for ED50: Staphylococcus aureus, sc, mice infected i.p. with 5×10^5 cells/mouse, subcutaneous injection just after infection, read-out: 50% curative dose (CD50); for Therapeutic effect in infected mice: mice infected with pathogenic Gram-positive bacteria
Description: Soon after infection, an aqueous solution of the antibiotic PS-5 sodium salt preparation was subcutaneously injected.
Activity of the antibiotic PS-7 obtained above was determined using mice infected with Staphylococcus aureus Smith at 5×10^5 cells a mouse intraperitoneally. Sodium salt of the antibiotic PS-7 was administered to the mice subcutaneously immediately after the infection.
The tritylation product of antibiotic PS-6 was subcutaneously injected just after infection. The 50% curative dose on male DDY mice (SHIZUOKA) was 5.5 mg/kg.
The tritylation product of antibiotic PS-7 was subcutaneously injected just after infection. The 50% curative dose on make DDY mice (SHIZUOKA) was 4.5 mg/kg.

[6] = tested on: Gram-positive and Gram-negative bacteria; experiment: Antibiotic spectra (summary in words); type: cell-based; settings: for Antibiotic activity against Gram-negative bacteria resistant to β-lactam antibiotics: genera Citrobacter, Proteus, Klebsiella, Enterobacter, Serratia as named at the place; for Antibiotic activity against Gram-positive bacteria: genera Staphylococcus, Diplococcus, Streptococcus, Bacillus as named at the place
Solubility = type: physicochemical; settings: 5 mg in 0.1 ml of solvent, shaking, 20° C.; for Solubility in organic solvents: solvents named in the value
Excerpt: The results are as shown as below:
The results are as shown below:

[7] = Acute toxicity, intraperitoneal administration; type: in vivo, DDY male mice; settings: mice, 500 mg/kg
[8] = tested on: Enterobacter cloacae E-16; experiment: MIC, broth dilution method; type: cell-based; settings: Enterobacter cloacae, E16, 20 h, lactamase producing organism, read-out: Minimum inhibitory concentration
Description: Sodium salt of the antibiotic PS-7 was dissolved and diluted with the BRAIN HEART INFUSION BROTH "Eiken" at a concentration between 5 μg/ml and 100 μg/ml. The solution was further diluted with the same medium to obtain a series of geometric concentrations. To the serial dilutions were added the seed cultures prepared by shaking culture of various test microorganisms shown in Tab. 5 in the BRAIN HEART INFUSION GROTH at 28° C. for 18 hours, the final cell count being about 1×10^5 /ml. […] The lowest concentration at which no cell growth was observed was the minimum inhibitory concentration of the antibiotic PS-7 on the test microorganism. […] The minimum inhibitory concentrations on test strains were determined in the same manner as mentioned above.

[9] = tested on: Staphylococcus aureus FDA 209P; experiment: MIC, broth dilution method; type: cell-based; settings: FDA209P, 20 h, final methanol not above 10%, read-out: Minimum inhibitory concentration
Description: (§1) Sodium salt of the antibiotic PS-7 was dissolved and diluted with the BRAIN HEART INFUSION BROTH "Eiken" at a concentration between 5 μg/ml and 100 μg/ml. The solution was further diluted with the same medium to obtain a series of geometric concentrations. To the serial dilutions were added the seed cultures prepared by shaking culture of various test microorganisms shown in Tab. 5 in the BRAIN HEART INFUSION GROTH at 28° C. for 18 hours, the final cell count being about 1×10^5 /ml. […] The lowest concentration at which no cell growth was observed was the minimum inhibitory concentration of the antibiotic PS-7 on the test microorganism. […] . The minimum inhibitory concentrations on test strains were determined in the same manner as mentioned above. […] For the comparison, the results on the known antibiotics Cephazolin and Cefoxitin are also given in the same table.

Citrobacter freundii E-9 [10] = experiment: MIC, broth dilution method; type: cell-based; settings: Citrobacter freundii, E9, 20 h, lactamase producing organism, read-out: Minimum inhibitory concentration
Description: as §1

[11] = tested on: Diplococcus pneumoniae Type III; experiment: MIC, broth dilution method; type: cell-based; settings: Streptococcus pneumoniae, 20 h, 10% of horse blood in the medium, read-out: Minimum inhibitory concentration
Description: as §1

[12] = tested on: Alcaligenes faecalis B-326; experiment: MIC, broth dilution method; type: cell-based; settings: Alcaligenes faecalis, B326, 20 h, read-out: Minimum inhibitory concentration
Description: as §1

[13] = tested on: β-lactamase-producing, β-lactam-resistant bacteria; experiment: Increase of the antibiotic activity of other antibiotics (summary in words); type: cell-based; settings: β-lactamase-producing bacteria such as Proteus vulgaris, Serratia marcescens
Description: (§2) 10 ml of 2.5 folds diluted nutrient agar (pH 7.0) containing 50 μg/ml of penicillin G or cephaloridine was seeded with the β-lactamase producing and β-lactam-resistant microorganisms and poured in a 9 cm Petri dish to provide the bio-assay agar plate. […] A control assay plate was similarly prepared without penicillin G or cephaloridine. As reference antibiotics, 10,000 μg/ml of penicillin G or 20 μl of cephaloridine were disc-assayed under the same conditions.
(§3) Cepholoridine was added to a 2.5-times diluted nutrient agar, pH 7.0 and the medium was inoculated with a β-lactam-producing strain that produceds β-lactamase. Ten ml of the medium was spread and solidified in a petri dish of 9 cm in diameter to prepare an assay plate. […] Each 20 μl of the solution and its 2- and 4-times diluted solutions was soaked in a pulp disc of 8 mm in diameter. To the surface of the above nutrient agar was placed the pulp disc and the size of the growth inhibitory zone around the disc was examined after incubation at 35° C. for 18 hours. […] In addition, for the comparison, a similar experiment was also performed with a pulp disk soaked with 20 μl of 10,000 μg/ml Penicillin G or Cepholoridine solution in place of the antibiotic PS-7.

Serratia marcescens S-18 = experiment: Potentiating and synergistic effect, pulp disc inhibition zone on agar plate; type: cell-based
Description: (§4) 10 ml of 2.5 folds diluted nutrient agar (pH 7.0) containing 50 μg/ml of penicillin G or cephaloridine was seeded with the β-lactamase producing and β-lactam-resistant microorganisms and poured in a 9 cm Petri dish to provide the bio-assay agar plate. On this assay plate, 8 mm of pulp discs each containing 20 μl of antibiotic PS-6 solution at the concentration of 240 μg/ml were placed and incubated at 35° C. for 18 hours before reading the inhibition zones. A control assay plate was similarly prepared without penicillin G or cephaloridine. As reference antibiotics, 10,000 μg/ml of penicillin G or 20 μl of cephaloridine were disc-assayed under the same conditions.

Citrobacter freundii E-9 [14] = experiment: as above; type: cell-based
Description: as §4

Proteus vulgaris P-5 [15] = experiment: as above; type: cell-based
Description: as §2, §3

[16] = Table 6, agar containing 50 μg/ml of cephaloridine, disc 20 μl, PS-6 240 μg/ml, reference antibiotics 10,000 μg/ml
[17] = Table 6, agar containing 50 μg/ml of penicillin G, disc 20 μl, PS-6 240 μg/ml, reference antibiotics 10,000 μg/ml

Structure (SMILES)	Stability [1]	MIC [2]	MIC [3]	MIC (Proteus vulgaris P-5 [4])	ED50 [5]	Therapeutic effect in infected mice [5]	Antibiotic activity against Gram-negative bacteria of the genera Klebsiella, Proteus [6]	Antibiotic activity against Gram-negative bacteria of the genus Alcaligenes (Comamonas) [6]	Antibiotic activity against Gram-negative bacteria resistant to β-lactam antibiotics [6]	Antibiotic activity against Gram-positive bacteria [6]	Solubility in water (Solubility)	Solubility in organic solvents (Solubility)	Acute toxicity [7]	other results
CCC1C(=O)N2C(C(=O)OC(c3ccccc3)(c3ccccc3)c3ccccc3)=C(SC=CNC(C)=O)CC12 (stereo not drawn) [Antibiotic PS-7 trityl ester]	more stable than antibiotic PS-6 or PS-7	10 µg/mL (≈ 18.6 µM)	0.16 µg/mL (≈ 0.297 µM)	25 µg/mL (≈ 46.4 µM)	4.5 mg/kg	marked therapeutic effect	good activity	very strong activity	strong activity	very strong activity	Substantially insoluble	Highly soluble in benzene ethyl acetate, chloroform, methanol, ethanol, acetone, dimethylformamide (DMF) and dimethylsulfoxide (DMSO); also recorded: Substantially insoluble in water and n-hexane	no acute toxicity	Antibiotic activity against Gram-negative bacteria resistant to β-lactam antibiotics ([6]; listed as trityl ester of antibiotic PS-7): strong antibiotic activity; MIC ([8]; Table 10): 25 µg/mL (≈ 46.4 µM); MIC ([9]; Table 10, ester dissolved in methanol): 0.16 µg/mL (≈ 0.297 µM); MIC (Citrobacter freundii E-9 [10]; Table 10): 6.25 µg/mL (≈ 11.6 µM); MIC ([11]; Table 10): 0.16 µg/mL (≈ 0.297 µM); MIC ([12]; Table 10): 1.34 µg/mL (≈ 2.49 µM)
CC(=O)NCCSC1=C(C(=O)OC(c2ccccc2)(c2ccccc2)c2ccccc2)N2C(=O)C(C(C)C)C2C1 (stereo not drawn) [Antibiotic PS-6 trityl ester]	more stable than antibiotic PS-6 or PS-7	20 µg/mL (≈ 36.1 µM)	0.33 µg/mL (≈ 0.595 µM)	25 µg/mL (≈ 45.1 µM)	5.5 mg/kg	marked therapeutic effect	good activity	very strong activity	strong activity	very strong activity	Substantially insoluble	Substantially insoluble in water and n-hexane; also recorded: Highly soluble in benzene, ethyl acetate, chloroform, methanol, ethanol, acetone, dimethylformamide (DMF) and dimethylsulfoxide (DMSO)	no acute toxicity	Antibiotic activity against Gram-negative bacteria resistant to β-lactam antibiotics ([6]; listed as trityl ester of antibiotic PS-6): strong antibiotic activity; MIC ([8]; Table 9): 25 µg/mL (≈ 45.1 µM); MIC ([9]; Table 9, ester dissolved in methanol): 0.33 µg/mL (≈ 0.595 µM); MIC (Citrobacter freundii E-9 [10]; Table 9): 12.5 µg/mL (≈ 22.5 µM); MIC ([11]; Table 9): 0.33 µg/mL (≈ 0.595 µM); MIC ([12]; Table 9): 1.34 µg/mL (≈ 2.42 µM)
CC1(C)S[C@@H]2[C@H](NC(=O)Cc3ccccc3)C(=O)N2[C@H]1C(=O)O [penicillin G]														Synergistic enhancement of the activity of penicillin G or cephaloridine (β-lactam antibiotics) [13]: no synergistic effect; Synergistic enhancement of the activity of penicillin G or cephaloridine (β-lactam antibiotics) ([13]; listed as Penicillin G): No enhancement of antimicrobial activity; zone of inhibition at 240 µg/mL (Serratia marcescens S-18; Serratia marcescens, S18, 18 h, read-out: Inhibition zone, Control): 0 mm; Inhibition zone, with cephaloridine (Serratia marcescens S-18; [16]): 0.0 mm; Inhibition zone, with penicillin G (Serratia marcescens S-18; [17]): 0.0 mm; zone of inhibition at 240 µg/mL (Citrobacter freundii E-9 [14]; Citrobacter freundii, E9, 18 h, read-out: Inhibition zone, Control): 0 mm; Inhibition zone, with cephaloridine (Citrobacter freundii E-9 [14]; [16]): 0.0 mm; Inhibition zone, with penicillin G (Citrobacter freundii E-9 [14]; [17]): 0.0 mm; zone of inhibition at 10000 µg/mL (Proteus vulgaris P-5 [15]; Proteus vulgaris, P5, 18 h, read-out: Diameter of inhibitory zone, No addition): 15 mm; zone of inhibition at 240 µg/mL (Proteus vulgaris P-5 [15]; Proteus vulgaris, P5, 18 h, read-out: Inhibition zone, Control): 15 mm; Inhibition zone, with cephaloridine (Proteus vulgaris P-5 [15]; [16]): 15.0 mm; Inhibition zone, with penicillin G (Proteus vulgaris P-5 [15]; [17]): 15.0 mm; Diameter of inhibitory zone, Cephaloridine-added (Proteus vulgaris P-5 [15]; Table 8, comparison disc 20 μl of 10,000 μg/ml, cephaloridine in the agar): 15.0 mm
